# According to ChEMBL document CHEMBL3272151, “Quantitative structure-activity relationship of chymotrypsin-ligand interactions” (J Med Chem, 1977):
# Experiments:
# Conditions in all cases: Homo sapiens
# [1] = Binding affinity to alpha-chymotrypsin (unknown origin) assessed as hydrolysis
# [2] = Binding affinity to alpha-chymotrypsin (unknown origin)
# [3] = Binding affinity to chymotrypsin (unknown origin) assessed as deacetylation
# [4] = Binding affinity to chymotrypsin (unknown origin)
# [5] = Binding affinity to chymotrypsin (unknown origin) assessed as hydrolysis
# [6] = Binding affinity to chymotrypsin (unknown origin) assessed as acetylation at pH 7
Structure (SMILES),logKcat [1],log(1/Km) [2],log K [3],log(1/Km) [4],logKcat [5],log K [6]
COC(=O)CNC(=O)CC(C)C,-1.6,1.62,–,–,–,–
CCCC[C@H](NC(C)=O)C(=O)OC,–,–,1.28,2.17,0.92,2.01
CC(C)(C)c1ccc(C(=O)Oc2ccc([N+](=O)[O-])cc2)cc1,–,–,–,–,–,4.07
COC(=O)[C@H](Cc1ccc(O)cc1)NC(C)=O,2.07,3.49,–,–,–,–
CCC[C@H](NC(C)=O)C(=O)OC,–,–,0.77,1.99,0.43,1.55
COC(=O)[C@H](Cc1ccc(O)cc1)NC(=O)c1ccccc1,–,–,2.08,4.74,1.96,2.56
O=C(Oc1ccc([N+](=O)[O-])cc1[N+](=O)[O-])c1ccc(C(F)(F)F)cc1,–,–,–,–,–,6.4
CCOC(=O)[C@H](Cc1ccc(O)cc1)NC(C)=O,–,–,2.3,3.15,2.28,3.7
O=C(Oc1ccc([N+](=O)[O-])cc1[N+](=O)[O-])c1cccc(F)c1,–,–,–,–,–,5.25
COc1ccc(C(=O)Oc2ccc([N+](=O)[O-])cc2[N+](=O)[O-])cc1,–,–,–,–,–,4.96
CC(=O)NCC(=O)Oc1ccc([N+](=O)[O-])cc1,–,–,-0.12,3.4,0.27,–
CC[C@H](NC(=O)c1ccccc1)C(=O)OC,–,–,0.18,2.85,-0.49,-0.39
O=C(Oc1ccc([N+](=O)[O-])cc1[N+](=O)[O-])c1cccc(Cl)c1,–,–,–,–,–,5.47
CCC[C@H](NC(C)=O)C(=O)OC(C)C,–,–,–,1.51,0.46,–
CC(C)c1ccc(C(=O)Oc2ccc([N+](=O)[O-])cc2)cc1,–,–,–,–,–,4.44
COc1ccc(OC(=O)[C@H](Cc2ccccc2)NS(C)(=O)=O)cc1,–,–,–,4.82,1.54,–
CC(C)c1ccc(C(=O)Oc2ccc([N+](=O)[O-])cc2[N+](=O)[O-])cc1,–,–,–,–,–,5.99
CC(=O)c1ccc(OC(=O)[C@H](Cc2ccccc2)NS(C)(=O)=O)cc1,–,–,–,4.89,1.54,–
O=C(Oc1ccc([N+](=O)[O-])cc1[N+](=O)[O-])c1ccc(Cl)cc1,–,–,–,–,–,5.55
Cc1cccc(C(=O)Oc2ccc([N+](=O)[O-])cc2[N+](=O)[O-])c1,–,–,–,–,–,4.75
Cc1ccc(C(=O)Oc2ccc([N+](=O)[O-])cc2[N+](=O)[O-])cc1,–,–,–,–,–,5.22
CS(=O)(=O)N[C@@H](Cc1ccccc1)C(=O)Oc1ccccc1,–,–,–,4.57,1.51,–
CCOC(=O)[C@@H](NC(C)=O)C(C)C,–,–,-0.68,0.96,-0.88,-0.26

Structure (SMILES),logKcat [1],log(1/Km) [2],log K [3],log(1/Km) [4],logKcat [5],log K [6]
CC(=O)N[C@H](C(=O)OCCCl)C(C)C,–,–,–,1.72,-0.64,–
COC(=O)[C@@H](NC(=O)c1ccccc1)C(C)C,–,–,-0.66,2.34,-1.19,-1.04
Cc1cccc(C(=O)Oc2ccc([N+](=O)[O-])cc2)c1,–,–,–,–,–,3.29
COC(=O)[C@H](CC(C)C)NC(C)=O,–,–,1.2,2.42,0.7,–
N#Cc1ccc(C(=O)Oc2ccc([N+](=O)[O-])cc2[N+](=O)[O-])cc1,–,–,–,–,–,5.94
O=C(CNC(=O)c1ccccc1)Oc1ccc(Cl)cc1,–,–,–,3.94,-0.31,–
CCOC(=O)[C@H](Cc1ccccc1)NC(C)=O,–,–,1.97,2.96,1.84,2.42
CC(=O)N[C@@H](Cc1ccccc1)C(=O)O[C@H](C)C1CCCCC1,–,–,–,3.31,1.29,–
COC(=O)CNC(=O)CCl,–,1.16,–,–,-1.26,–
CCCCOC(=O)CNC(=O)c1ccccc1,–,–,–,2.95,-0.76,–
CC(C)COC(=O)CNC(=O)c1ccccc1,–,–,–,2.62,-0.78,–
CC[C@H](C)OC(=O)[C@H](Cc1ccccc1)NC(C)=O,–,–,–,3.04,1.55,–
COC(=O)[C@H](C)NC(=O)c1ccccn1,–,–,–,1.74,-1.15,–
Cc1ccc(OC(=O)CNC(=O)c2ccccc2)cc1,–,–,–,3.87,-0.21,–
CC[C@H](NC(C)=O)C(=O)OC,–,–,0.22,1.28,0.02,0.94
CC(=O)c1ccc(OC(=O)CNC(=O)c2ccccc2)cc1,–,–,–,4.51,-0.28,–
O=C(Oc1ccc([N+](=O)[O-])cc1[N+](=O)[O-])c1cccc(C(F)(F)F)c1,–,–,–,–,–,5.47
O=C(Oc1ccc([N+](=O)[O-])cc1[N+](=O)[O-])c1ccccc1,–,–,–,–,–,4.86
CC(=O)N[C@H](C(=O)OC(C)C)C(C)C,–,–,-0.68,0.75,-1.08,-0.75
COC(=O)[C@@H](NC(C)=O)C(C)C,–,–,-0.68,0.95,-0.82,-0.01
CS(=O)(=O)N[C@@H](Cc1ccccc1)C(=O)Oc1cccc([N+](=O)[O-])c1,–,–,–,5.06,1.49,–
CC(=O)N[C@@H](Cc1ccccc1)C(=O)O[C@@H](C)c1ccccc1,–,–,–,4.22,2.04,–
COc1ccc(OC(=O)CNC(=O)c2ccccc2)cc1,–,–,–,3.99,-0.25,–

Structure (SMILES),logKcat [1],log(1/Km) [2],log K [3],log(1/Km) [4],logKcat [5],log K [6]
COC(=O)CNC(=O)c1ccccc1,–,2.12,–,–,-0.9,-0.38
CCOC(=O)[C@H](C)NC(=O)c1ccccc1,–,–,-0.22,2.22,-1.16,-1.16
COC(=O)[C@H](C)NC(=O)c1ccncc1,–,–,–,1.54,-0.38,–
CCOC(=O)[C@H](Cc1ccc(O)cc1)NC(=O)c1ccccc1,–,–,2.12,4.66,1.93,2.4
CCC[C@H](NC(=O)c1ccccc1)C(=O)OC,–,–,0.77,3.07,0.39,0.62
COC(=O)[C@H](C)NC(=O)c1ccc2ccccc2n1,–,–,–,3.66,-2.4,–
O=C(Oc1ccc([N+](=O)[O-])cc1[N+](=O)[O-])c1ccc(F)cc1,–,–,–,–,–,4.83
CC(C)OC(=O)CNC(=O)c1ccccc1,–,–,–,2.69,-1.32,–
O=C(CNC(=O)c1ccccc1)Oc1ccccc1,–,–,–,3.87,-0.31,–
COC(=O)[C@H](Cc1ccccc1)NC(=O)c1ccccc1,–,–,1.96,4.46,1.49,1.66
CCOC(=O)CNC(C)=O,-1.42,–,–,1.2,–,-1.03
O=C(CNC(=O)c1ccccc1)Oc1cccc([N+](=O)[O-])c1,–,–,–,4.17,-0.28,–
CC(=O)N[C@@H](Cc1ccccc1)C(=O)O[C@H](C)c1ccccc1,–,–,–,4.3,2.02,–
C[C@H](OC(=O)CNC(=O)c1ccccc1)c1ccccc1,–,–,–,3.77,-0.13,–
COC(=O)[C@@H](NC(=O)CCl)C(C)C,–,–,-0.68,1.37,-0.9,-0.49
O=C(CNC(=O)c1ccccc1)OCc1ccncc1,–,–,–,4.04,-0.25,–
COC(=O)[C@H](Cc1ccccc1)NC(C)=O,–,–,2.04,2.9,1.72,2.9
COC(=O)[C@H](C)NC(=O)c1ccccc1,–,–,–,2.01,-0.64,–
CCCOC(=O)CNC(=O)c1ccccc1,–,–,–,2.72,-0.9,–
O=C(CNC(=O)c1ccccc1)Oc1ccc([N+](=O)[O-])cc1,–,–,–,4.06,-0.31,–
CC[C@@H](C)OC(=O)[C@H](Cc1ccccc1)NC(C)=O,–,–,–,2.76,1.98,–
COC(=O)CNC(=O)c1c[nH]c2ccccc12,–,2.86,–,–,-1.25,–
CCc1ccc(C(=O)Oc2ccc([N+](=O)[O-])cc2[N+](=O)[O-])cc1,–,–,–,–,–,5.53
